Key:
Cal27 oral cancer cells = assay: MTT antiproliferative assay, Cal27; type: cell-based; details: Homo sapiens, CAL-27; MTT, 72 h treatment; mean ± SEM; read-out: GI50 for Cal27
Protocol: FaDu cell line was cultured in RPMI-1640 medium containing L-glutamine (300 mg/L) and sodium bicarbonate (2 g/L), while Cal27, HEK293 and HFF-1 cell lines were cultured in DMEM medium containing glucose (4.5 g/L), L-glutamine (584 mg/L) and sodium bicarbonate (3.7 g/L). For gene expression and qPCR studies, RNA isolation was performed using Trizol (Thermo). The reagents and the primer sequences employed for the qPCR assays have been described previously ([Chakraborty et al., 2022]).
The hits derived from the docking study were sourced from either commercial suppliers or pre-existing compounds within our laboratory or were synthesized anew. The FaDu and Cal27 oral cancer cells were treated with the compounds for 72 h at concentrations of 3, 10, 30, and 100 μM. A post-treatment MTT assay was done to evaluate their antiproliferative activity. Table S2 represents the anti-proliferative and enzyme inhibitory activity of the compounds obtained as hits from the structure-based drug design strategy. […] Consequently, 50 μM of all the hit compounds were evaluated for their HK2 enzyme inhibitory activity. 50 μM of compounds were incubated with HK2 protein and the rate of reaction was assessed in kinetic mode (rate of conversion of NAD to NADH). The choice of 50 μM concentration was based primarily on MTT assays and GI50 calculation. The average GI50 values of the hit compounds against less sensitive FaDu cell line was approximately 50 μM. Considering this information, we reasoned that utilizing a concentration equivalent to the average GI50 would allow us to assess the maximum inhibitory effect of the compounds on HK2 enzyme activity. […] The same compounds have been previously reported by our team to have EGFR phosphorylation inhibitory potential and were coded as H2 (compound 14) and H10 (compound 11) ([Chakraborty et al., 2022]). […] Figures 1C,D show the lead compounds H2 and H10 at the active site of HK2 enzyme interacting via H-bonds with the amino acid residues.

FaDu cells = assay: 2-NBDG glucose uptake assay (flow cytometry), FaDu; type: cell-based; details: 10 μM and 30 μM, 72 h, vs DMSO control
Protocol: FaDu and Cal27 cells were treated with test compounds (0.2 million cells per treatment) and were incubated for 1 h with 100 μM of 2-NBDG (Invitrogen, N13195), in glucose free medium, washed with ice-cold PBS, and re-suspended in 500 μL of PBS and maintained on ice to perform flow cytometric analyses within 30 min. The mean fluorescent intensity (MFI) readout reflects the amount of fluorescent glucose analog taken up by the cells, providing insight into their glucose uptake capacity. The percent (%) cell population positive for glucose uptake (shown with a right shift of the histogram peaks) were also plotted for both the cell lines. For MMP analysis, cells were incubated with 200 nM of TMRE (Invitrogen, T669) for 30 min. For each measurement, data was collected for 10,000 events using a BD FACS Aria III (Becton Dickinson, San Jose, CA) instrument.
2-[N-(7-Nitrobenz-2-oxa-1,3-diaxol-4-yl) amino]-2-deoxyglucose (2-NBDG) uptake into cells happens via glucose transporters and post uptake 2-NBDG gets phosphorylated by hexokinases. Since cancer cells represent higher glycolytic activity, the inhibition of HK2 activity in cancer cells is actively reflected in the inhibition of 2-NBDG uptake ([Hung et al., 2022]; [Li et al., 2022]). […] In this assay, the MFI of intracellular 2-NBDG serves as a quantitative measure of cellular glucose uptake. […] This finding is further supported by the increased % population of 2-NBDG positive cells in Cal27 cells compared to FaDu cells (Figure 3).

[1] = system: mitochondrial HK2 (mitoHK2) in Cal27 cells; assay: Western blot fractionation, mitoHK2 dissociation; type: cell-based; details: 4 h
Protocol: Cal27 cells were treated with the test compound (1 million cells per treatment for 4 h) and were processed for mitochondria isolation using a homogenization buffer containing 210 mM mannitol, 70 mM sucrose, 5 mM tris-HCl, (pH 7.5) and 1 mM EDTA (pH 7.5). The cell pellet was sheared with a total of 90 strokes in the homogenization buffer in a span of 1 h on ice. The lysate was centrifuged at 800 rpm for 10 min and the mitochondria enriched supernatant was isolated. The pellet was again lysed using RIPA lysis buffer to obtain the cytosolic fraction. The mitochondrial fractions and the cytosolic fractions were loaded on a 10% SDS-PAGE gel. The antibodies used were anti-HK2 antibody (CST, Cat#2867), anti β-actin antibody (CST, Cat#4970) and mitochondrial marker anti-VDAC antibody (CST, Cat# 4661). The whole cell lysates were obtained using RIPA lysis buffer alone. The quantifications were performed using ImageJ software.
Mitochondria utilize the oxidizable substrates to produce a membrane potential as the proton gradient ([Sivandzade et al., 2019]). […] To determine the change in MMP post-treatment with HK2 inhibitors, the cells were treated with 200 nM of TMRE (tetramethyl rhodamine ethyl ester, a cell-permeant cationic dye readily sequestered by active mitochondria) and flow cytometric analyses of TMRE uptake was carried out. […]

[2] = system: EGFR tyrosine kinase receptor phosphorylation; set-up: method as in Chakraborty et al., 2022; details: 10 µM, 72 h of treatment; ref Chakraborty et al., 2022; cited from earlier work

## COc1ccc(CNC(=O)c2nc3ccccc3s2)cc1O [Compound 14, N-(3-hydroxy-4methoxybenzyl)benzo[d]thiazole-2-carboxamide]
Cal27 oral cancer cells
  GI50: 21.7 µM
FaDu cells
  2-NBDG MFI: significant reduction
[1]; Cal27, 30 μM
  mitochondrial HK2 (mitoHK2) dissociation: induced the dissociation of mitoHK2
[1]; Cal27 whole cell lysate, 30 μM
  expression of total HK2 protein: without altering the expression of total HK2 protein
[2]
  phosphorylation of the EGFR tyrosine kinase receptor: inhibits the phosphorylation

From article PMC10961359, “Targeting hexokinase 2 for oral cancer therapy: structure-based design and validation of lead compounds” (Frontiers in Pharmacology, 2024)
